The source of these data is patent publication US6518295B1, “Utilization of aryl(or heteroaryl)azolylcarbinol derivatives in the preparation of a medicament for the treatment of troubles mediated by an excess of substance P” (Laboratorios del Dr. Esteve, S.A., priority 1998, dated 2003).

Holding throughout (format): in vivo
For experiment [1], the system named is intrathecal release of substance P. Kind of experiment: Effect on the spinal release of substance P in rats (intrathecal perfusion). As to the method: Effect on the Spinal Release of Substance P in Rats:
The study was carried out in vivo, in rats anaesthetised with halothane. The trial consisted of intrathecal perfusion with an artificial cerebrospinal fluid, with a view to collecting the peptides released from the superficial layers of the spinal cord while the product under study is administered locally or systematically. The method used was that described by Collin, E. and co-workers (Naunyn-Schmiedeberg's Arch. Pharmacol., 1994, 349, 387-393).
The activity of the (±)-5-{α-[2-(dimethylamino)ethoxy] benzyl}-1-methyl-1H-pyrazol citrate (example 191) was studied, administered intrathecally in the perfusion liquid, at a concentration of 1 μM.
It is of note that the effect of the systematic administration of product on the intrathecal release of substance P lasted 2 hours, the average inhibition being 50% of the effect during this period.

The subject of experiment [2] is immobility time in adverse situation. In words: Effect on mobility in adverse situation (mice suspended by their tails, ITEMATIC-TST). An excerpt: (§1) In one the inhibition of ptosis induced by reserpine was studied, and in the other the effect on mobility in adverse situation was investigated.
2.2 Effect on Mobility in Adverse Situation:
The method used was described by R. D. Porsolt and co-workers (Arch. Int. Pharmacodyn., 1987, 288, 11-30). The trial consists of suspending the mice by their tales for six minutes in an ITEMATIC-TST apparatus, which measures the mobility and the strength of the animals' movements. The animals exposed to this adverse situation, after a start with vigorous activity, become desperate and end up staying still.

For experiment [3], the system named is ptosis induced by reserpine. In words: Inhibition of ptosis induced by reserpine in mice. As to the method: as §1
2.1 Inhibition of Ptosis Induced by Reserpine in Mice:
The method used was that described by S.Garattini and co-workers (Med. Exp., 1960, 3, 315-320). The trial consists of observing the possible inhibition of ptosis induced by reserpine ([…], ip: intraperitoneal) in mice, after the products under study had been administered orally.
The activity of the (±)-5-{α-[2-(dimethylamino)ethoxy] benzyl}-1-methyl-1H-pyrazol citrate (example 191) administered orally at different doses has been determined.

SMILES strings stand for the structures. Like-named read-outs stand apart in the source and are kept apart here.

The term inhibition denotes the drop in the measured response relative to a control, in per cent. Consider `CN(C)CCOC(c1ccccc1)c1ccnn1C.O=C(O)CC(O)(CC(=O)O)C(=O)O` (racemic) [Example 191, (±)-5-{α-[2-(dimethylamino)ethoxy]benzyl}-1-methyl-1H-pyrazol citrate], for which the inhibition at 1 µM in experiment [1] (Rattus norvegicus, central, 1 μM, intrathecal, in the perfusion liquid, rats anaesthetised with halothane, read-out: % Inhibition, with respect to control, of intrathecal release of substance P) was found to be 58%. The inhibition at 46 mg/kg in experiment [1] (Rattus norvegicus, central, systematic administration (46 mg/kg), average during the 2 hours, read-out: average inhibition of intrathecal release of substance P) turned out to be 50%; in experiment [1] (Rattus norvegicus, 46 mg/kg, ip, rats anaesthetised with halothane, read-out: % Inhibition, with respect to control, of intrathecal release of substance P), 50%; in experiment [2] (Mus musculus, mice, dose 46 mg/kg, oral), 41%. Moreover, the “effect on release of substance P” value in experiment [1] (intrathecally in the perfusion liquid, 1 μM) is given as “inhibited the release of substance P”; in experiment [1] (systematic administration of 46 mg/kg) it was “reduced the release of substance P”. Moreover, the “duration of the effect on the intrathecal release of substance P” value in experiment [1] (systematic administration (46 mg/kg)) came to 2 h. The inhibition at 12 mg/kg in experiment [2] (Mus musculus, mice, dose 12 mg/kg, oral) was found to be 20%; in experiment [3] (Mus musculus, 12 mg/kg, oral (dose as base)), 8%. In addition, the inhibition at 23 mg/kg was 30% in experiment [2] (Mus musculus, mice, dose 23 mg/kg, oral) and 30% in experiment [3] (Mus musculus, 23 mg/kg, oral (dose as base)). In addition, the inhibition at 92 mg/kg in experiment [2] (Mus musculus, mice, dose 92 mg/kg, oral) came out at 69%; in experiment [3] (Mus musculus, 92 mg/kg, oral (dose as base)) it was 84%. In experiment [2] (mice suspended by their tails for six minutes), the “effect on the immobility period” value is “reducing the immobility period significantly and in a dose-dependent fashion”. In addition, the “DE-50 (inhibition of immobility time in adverse situation)” value in experiment [2] (mice, oral) was 50.5 mg/kg, oral. For the same molecule, in experiment [3] (Mus musculus, 80 mg/kg, oral (dose as base)), the inhibition at 80 mg/kg was 75%. In addition, in experiment [3] (oral, different doses), the “anti-depressive activity, inhibition of the effects of reserpine” value is “clear anti-depressive activity inhibiting the effects of reserpine with a good dose-response”. In addition, in experiment [3] (oral, inhibition of ptosis induced by reserpine), the SD-50 is reported as 38.5 mg/kg, oral.
